Laboratory results taken from US20240307423A1, “FRACTIONS OF, AND MOLECULES RELEASED IN, PROTEIN RICH PLASMA WHICH INHIBIT IMMUNE RESPONSES AND REDUCE INFLAMMATION, AND METHODS OF OBTAINING” (NEW YORK SOCIETY FOR THE RELIEF OF THE RUPTURED AND …, priority 2021, published 2024).

Key:
[1] = system: TLR9-activated human plasmacytoid dendritic cells (pDCs); experiment: IFN-α secretion (ELISA) by purified pDCs activated with TLR9 ligand alone (CpG1018 / CpG C274); type: cell-based; settings: without CXCL4; various dilutions
Method: (§1) PBMCs were prepared using Ficoll-Paque density gradient from fresh blood under internal Institutional Review Board-approved protocols. pDCs were isolated as previously described (Guiducci et al. 2008) using either using negative depletion (Miltenyi Biotech) or following cell sorting using a […]. All BDCA4+ cells also express BDCA2 (results not shown). As a result, pure pDCs were obtained and no markers for neutrophils (CD66) or myeloid cells were found by PCR.
(§2) For the TLR9 activation in pDCs, the cells were incubated in complete media alone, or CpG-B 1018 (0.25 or 1 μM), or CpG-C 274 at similar concentrations. In some assays, cells were also incubated with 10 μg/ml CXCL4 (R&D systems).
(§3) Supernatant from B cells and pDCs 24 hour culture was used for quantification of secreted IFNα with the use of an enzyme-linked immunosorbent assay (ELISA) (Mabtech) performed according to the manufacturer's protocol.
(§4) Data were analyzed using a Mann-Whitney U-test (t test using non parametric criteria for independent samples). Comparisons between PBMC and pDCs-depleted PBMC were tested using a parametric paired t-test. All analyses were performed using Prism software (GraphPad Software). Differences were considered significant at a P level less than 0.05 with *p<0.05; **p<0.01; ***p<0.001.

[2] = system: TLR9+CXCL4-activated human plasmacytoid dendritic cells (pDCs); experiment: IFN-α secretion (ELISA) by purified pDCs activated with CpG-B (TLR9 ligand) + CXCL4; type: cell-based; settings: CXCL4 present
Method: as §1, §2, §3, §4

**Q.** How did the “inhibitory effect on TLR9-activated pDCs, IFN-α production relative to the TLR9 agonist CpG C274” value [1] turn out when CC(=O)N[C@H]1[C@H]([C@H](O)[C@H](O)CO)O[C@@](O)(C(=O)O)C[C@@H]1O [N-Acetylneuraminic acid, 5-(acetylamino)-3,5-dideoxy-D-glycero-α-D-galacto-non-2-ulopyranosonic acid] was run?
**A.** significant inhibitory effect

**Q.** And the “inhibitory effect on TLR9-activated pDCs, IFN-α production relative to CpG-CXCL4” value [2]?
**A.** significant inhibitory effect
